Assay results as given in ChEMBL document CHEMBL1268960, “Discovery of cell-active phenyl-imidazole Pin1 inhibitors by structure-guided fragment evolution” (Bioorg Med Chem Lett, 2010).
The source made the active and inactive calls. The rule behind the calls is not given here.

Tests used:
[1] = tested on: PC-3; test: Growth inhibition of serum starved human PC3 cells; type: functional
[2] = molecular target: T1, Peptidyl-prolyl cis-trans isomerase NIMA-interacting 1 (Homo sapiens, UniProt Q13526); test: Inhibition of Pin1 by PIn1 PPIase assay
T1 sequence (Q13526 whole entry): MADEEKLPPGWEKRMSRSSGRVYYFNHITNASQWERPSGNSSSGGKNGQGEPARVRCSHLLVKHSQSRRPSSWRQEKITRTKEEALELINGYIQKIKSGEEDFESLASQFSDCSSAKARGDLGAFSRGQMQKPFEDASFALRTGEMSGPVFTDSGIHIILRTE

[3] = tested on: PC-3; test: Inhibition of cyclin E1 expression in serum starved human PC3 cells; type: functional, cell-based
[4] = molecular target: T1, Peptidyl-prolyl cis-trans isomerase NIMA-interacting 1; test: Inhibition of Pin1-mediated cyclin D1 expression in serum starved human PC3 cells; type: cell-based, PC-3
[5] = molecular target: T1, Peptidyl-prolyl cis-trans isomerase NIMA-interacting 1; test: Inhibition of Pin1 in serum starved human PC3 cells assessed as reduction in insulin-induced p7)S6 kinase phosphorylation; type: cell-based, PC-3
[6] = molecular target: Peptidyl-prolyl cis-trans isomerase FKBP1A (Homo sapiens) (UniProt P62942); test: Inhibition of FKBP12
Chain of Peptidyl-prolyl cis-trans isomerase FKBP1A (Homo sapiens) (P62942 whole entry): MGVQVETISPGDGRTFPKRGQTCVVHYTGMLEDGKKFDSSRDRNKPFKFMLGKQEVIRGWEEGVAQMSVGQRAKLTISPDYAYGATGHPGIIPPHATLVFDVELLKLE

[7] = molecular target: Peptidyl-prolyl cis-trans isomerase A (Homo sapiens) (UniProt P62937); test: Inhibition of cyclophilin A
Chain of Peptidyl-prolyl cis-trans isomerase A (Homo sapiens) (P62937 whole entry, looked up): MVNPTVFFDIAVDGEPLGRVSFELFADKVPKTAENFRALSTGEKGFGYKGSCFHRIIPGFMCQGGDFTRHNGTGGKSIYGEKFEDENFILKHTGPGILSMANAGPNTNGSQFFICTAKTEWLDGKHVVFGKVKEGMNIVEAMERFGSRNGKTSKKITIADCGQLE

[8] = molecular target: T1, Peptidyl-prolyl cis-trans isomerase NIMA-interacting 1; test: Binding affinity to Pin1 by isothermal calorimetry

Structure (SMILES)	GI50 [1]	IC50 [2]	other results
O=C(O)c1[nH]c(-c2ccccc2)nc1C(=O)N1CCOCC1	> 200 µM		
Cc1nc(-c2cccc(C(F)(F)F)c2)[nH]c1C(=O)O		23 µM	
CN(Cc1ccccc1)C(=O)c1[nH]c(-c2cccc(Cl)c2)nc1C(=O)O	56 µM		
O=C(O)c1nc(-c2ccccc2)[nH]c1C(=O)O		1.46 µM	
Cc1cccc(-c2nc(C(=O)O)c(C)[nH]2)c1		34 µM	
CN(CC(=O)O)C(=O)c1nc(-c2ccccc2)[nH]c1C(=O)O		9.4 µM	
O=C(O)c1nc(-c2ccccc2)[nH]c1C(=O)N(Cc1ccccc1)Cc1ccccc1	21 µM	4 µM	
O=C(O)c1[nH]c(-c2ccccc2)nc1C(=O)N(CCc1ccccc1)Cc1ccccc1	13 µM	0.83 µM	inhibition [3]: inactive; EC50 [4]: 10 µM; EC50 [5]: 30 µM; inhibition [6]: inactive; inhibition [7]: inactive
O=C(O)c1[nH]c(-c2cccc(Cl)c2)nc1C(=O)N1CCOCC1	> 200 µM	21 µM	
O=C(O)c1nc(-c2cccc(F)c2)[nH]c1C(=O)O		0.32 µM	Kd [8]: 0.52 µM
Cc1nc(-c2cccc(C#N)c2)[nH]c1C(=O)O		19 µM	
CN(Cc1ccccc1)C(=O)c1nc(-c2ccccc2)[nH]c1C(=O)O	> 200 µM	31 µM	
O=C(O)c1[nH]c(-c2cccc(Cl)c2)nc1C(=O)N(Cc1ccccc1)Cc1ccccc1	18 µM	1.4 µM	Kd [8]: 1.4 µM
O=C(O)c1nc(-c2ccccc2)[nH]c1C(=O)NCc1ccccc1		220 µM	
COc1ccccc1-c1ccc(C(=O)O)o1		> 1000 µM	
CN(CC(N)=O)C(=O)c1nc(-c2ccccc2)[nH]c1C(=O)O	> 200 µM		
COc1cccc(-c2nc(C)c(C(=O)O)[nH]2)c1		270 µM	
CNC(=O)c1nc(-c2ccccc2)[nH]c1C(=O)O		80 µM	
NC(=O)CN(Cc1nc2ccccc2s1)C(=O)c1nc(-c2ccccc2)[nH]c1C(=O)O	> 80 µM	0.52 µM	
CCNC(=O)c1nc(-c2ccccc2)[nH]c1C(=O)O		140 µM	
CCOC(=O)CN(Cc1ccccc1)C(=O)c1nc(-c2ccccc2)[nH]c1C(=O)O	> 200 µM	8 µM	
